Measurements from ChEMBL document CHEMBL3879915, “Methods of inhibiting PRMT5” (2014).

Assays:
[1] = molecular target: Protein arginine N-methyltransferase 5 (Homo sapiens, UniProt O14744); test: Inhibition of PRMT5 in human Z138 cells assessed as decrease in di-methyl arginine levels after 96 hrs by Western blot method; format: cell-based
[2] = molecular target: PRMT5/MEP50 complex (Homo sapiens, UniProt O14744); test: Inhibition of recombinant human fetal brain FLAG-tagged PRMT5/full length human testis 6His-tagged MEP50 expressed in baculovirus infected insect Sf9 cells using human histone H4 (1 to 15 residues) as substrate preincubated for 30 mins followed by [3H]-SAM addition
Sequence of PRMT5/MEP50 complex (O14744 whole entry, the tested form may be a part): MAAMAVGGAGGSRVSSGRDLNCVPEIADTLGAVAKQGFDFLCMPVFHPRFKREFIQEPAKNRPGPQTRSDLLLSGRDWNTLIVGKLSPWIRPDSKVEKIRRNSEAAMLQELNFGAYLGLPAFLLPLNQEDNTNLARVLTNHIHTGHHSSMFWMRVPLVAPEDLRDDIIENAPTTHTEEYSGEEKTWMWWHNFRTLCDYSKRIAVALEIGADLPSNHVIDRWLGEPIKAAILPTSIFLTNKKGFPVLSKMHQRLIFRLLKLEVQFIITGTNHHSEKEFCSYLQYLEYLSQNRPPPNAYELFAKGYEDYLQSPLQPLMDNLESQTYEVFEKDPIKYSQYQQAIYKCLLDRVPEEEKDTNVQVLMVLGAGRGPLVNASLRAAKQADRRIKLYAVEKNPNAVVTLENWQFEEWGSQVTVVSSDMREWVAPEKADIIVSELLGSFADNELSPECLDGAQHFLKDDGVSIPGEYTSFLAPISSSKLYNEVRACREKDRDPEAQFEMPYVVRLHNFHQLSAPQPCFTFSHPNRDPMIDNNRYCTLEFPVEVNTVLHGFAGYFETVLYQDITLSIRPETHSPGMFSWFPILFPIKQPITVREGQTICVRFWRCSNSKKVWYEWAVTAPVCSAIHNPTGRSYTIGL
Sequence of PRMT5/MEP50 complex (Q9BQA1 whole entry, further chain, the tested form may be a part): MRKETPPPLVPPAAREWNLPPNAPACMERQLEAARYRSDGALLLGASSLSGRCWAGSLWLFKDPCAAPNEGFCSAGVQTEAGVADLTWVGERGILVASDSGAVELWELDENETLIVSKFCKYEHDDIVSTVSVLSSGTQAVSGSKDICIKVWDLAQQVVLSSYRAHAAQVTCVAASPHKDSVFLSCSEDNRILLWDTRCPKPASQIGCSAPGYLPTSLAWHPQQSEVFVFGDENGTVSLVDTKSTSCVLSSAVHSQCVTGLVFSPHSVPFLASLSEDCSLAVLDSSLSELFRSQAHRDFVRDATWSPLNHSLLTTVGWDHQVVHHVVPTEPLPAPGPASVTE

[3] = Antiproliferative activity against human Z138 cells assessed as inhibition of cell viability after 5 days by Cell-Titer Glo assay; format: functional, cell-based; conditions: Z-138, 120 h

Sequence of Protein arginine N-methyltransferase 5 (O14744 whole entry, the tested form may be a part): as the sequence (O14744 whole entry, the tested form may be a part) above

| Structure (SMILES) | EC50 [1] [nM] | IC50 [2] [nM] | EC50 [3] [µM] |
| --- | --- | --- | --- |
| O=C(Cn1ccc2cnc(-c3ccnc(NCC(O)CN4CCc5ccccc5C4)c3)nc21)N1CCCCC1 (configuration not stated) | < 100 | < 100 | 0.101 to 1 |
| Cn1cnc2ccc(-c3cccc(OCC(O)CN4CCc5ccccc5C4)c3)cc21 (configuration not stated) | 101 to 10000 | < 100 | 1 to 20 |
| OC(COc1cccc(-c2ccc(C(F)(F)F)cc2C(F)(F)F)c1)CN1CCc2ccccc2C1 (configuration not stated) | 10000 to 40000 | 101 to 1000 | > 20 |
| O=C(COc1ccccc1S(=O)(=O)N1CCC(O)C1)NCC(O)CN1CCc2ccccc2C1 (configuration not stated) | < 100 | < 100 | 0.101 to 1 |
| O=C(Nc1cccc(OCC(O)CN2CCc3ccccc3C2)c1)c1cncnc1 (configuration not stated) | 1000 to 10000 | 1000 to 10000 | > 20 |
| O=C(COc1cccc(F)c1)NCC(O)CN1CCc2ccccc2C1 (configuration not stated) | 101 to 1000 | 101 to 1000 | 10 to 50 |
| O=C1COc2ccc(-c3cccc(OCC(O)CN4CCc5ccccc5C4)c3)cc2N1 (configuration not stated) | 1000 to 10000 | 101 to 1000 | 10 to 40 |
| CC(C)(Oc1cccc2cccnc12)C(=O)NCC(O)CN1CCc2ccccc2C1 (configuration not stated) | 101 to 1000 | < 100 | 1 to 10 |
| NC(=O)c1cccc(C(=O)NCC(O)CN2CCc3ccccc3C2)c1 (configuration not stated) | 1000 to 10000 | 101 to 1000 | > 20 |
| O=C(NCC(O)CN1CCc2ccccc2C1)c1ccccn1 (configuration not stated) | 101 to 1000 | 101 to 1000 | > 20 |
| OC(COc1cccc(-c2ccc3[nH]ncc3c2)c1)CN1CCc2ccccc2C1 (configuration not stated) | 1000 to 10000 | 101 to 1000 | > 20 |
| OC(CNc1cc(-c2ncc3ccn(C4CCNCC4)c3n2)ccn1)CN1CCc2ccccc2C1 (configuration not stated) | < 100 | < 100 | 0.101 to 1 |
| OC(COc1cccc(-c2ccc3ncn(C4COC4)c3c2)c1)CN1CCc2ccccc2C1 (configuration not stated) | 101 to 1000 | < 100 | 10 to 40 |
| OCc1cccc(-c2cccc(OCC(O)CN3CCc4ccccc4C3)c2)c1 (configuration not stated) | 1000 to 10000 | 101 to 1000 | 10 to 40 |
| NC(=O)c1ccc(C(=O)NCC(O)CN2CCc3ccccc3C2)cc1 (configuration not stated) | 101 to 1000 | 101 to 1000 | > 20 |
| CN1CCN(C(=O)Cn2ccc3cnc(-c4cccc(OCC(O)CN5CCc6ccccc6C5)c4)nc32)CC1 (configuration not stated) | 101 to 1000 | 101 to 1000 | 10 to 40 |
| OC(COc1ccc(C2CCCNC2)cc1)CN1CCc2ccccc2C1 (configuration not stated) | 101 to 1000 | < 100 | 1 to 10 |

| Structure (SMILES) | EC50 [1] [nM] | IC50 [2] [nM] | EC50 [3] [µM] |
| --- | --- | --- | --- |
| CN1CCc2c(cccc2OCC(=O)NCC(O)CN2CCc3ccccc3C2)C1 (configuration not stated) | 101 to 1000 | < 100 | 1 to 10 |
| Cc1cccc(OCC(=O)NCC(O)CN2CCc3ccccc3C2)c1 (configuration not stated) | 101 to 1000 | < 100 | 1 to 10 |
| O=C(COc1cccc2cccnc12)NC[C@@H](O)CN1CCc2ccccc2C1 | < 100 | < 100 | 0.101 to 1 |
| O=C(COc1cccc2ncc(=O)[nH]c12)NCC(O)CN1CCc2ccccc2C1 (configuration not stated) | 1000 to 10000 | 101 to 1000 | > 20 |
| COc1ccc(Cn2cnc3ccc(-c4cccc(OCC(O)CN5CCc6ccccc6C5)c4)cc32)cc1 (configuration not stated) | 1000 to 10000 | 101 to 1000 | 10 to 40 |
| CNC(=O)Cn1cnc2ccc(-c3cccc(OCC(O)CN4CCc5ccccc5C4)c3)cc21 (configuration not stated) | 1000 to 10000 | 101 to 1000 | 1 to 10 |
| CN1CCCC(c2ccccc2OCC(=O)NCC(O)CN2CCc3ccccc3C2)C1 (configuration not stated) | 101 to 1000 | < 100 | 1 to 10 |
| O=C1CN(c2ccc(Cl)cc2)CCN1CC(O)CN1CCc2ccccc2C1 (configuration not stated) | 101 to 1000 | < 100 | 10 to 50 |
| Cn1cnc2ccc(-c3cccc(OCC(O)CN4CCc5ccccc5C4)c3)nc21 (configuration not stated) | 101 to 1000 | < 100 | 0.101 to 1 |
| OC(COc1cccc(-c2ccc3ncn(C4CCNCC4)c3c2)c1)CN1CCc2ccccc2C1 (configuration not stated) | 101 to 1000 | < 100 | 1 to 10 |
| C[C@@H](Oc1cccc2cccnc12)C(=O)NC[C@H](O)CN1CCc2ccccc2C1 | < 100 | < 100 | 0.101 to 1 |
| CC(Oc1ccccc1S(C)(=O)=O)C(=O)NCC(O)CN1CCc2ccccc2C1 (configuration not stated) | 1000 to 10000 | 101 to 1000 | > 20 |
| CN1CCC(c2ccccc2OCC(=O)NCC(O)CN2CCc3ccccc3C2)CC1 (configuration not stated) | 1000 to 10000 | 101 to 1000 | > 20 |
| OC(COc1cccc(-c2ccc(C(F)(F)F)cc2Cl)c1)CN1CCc2ccccc2C1 (configuration not stated) | 10000 to 40000 | 101 to 1000 | > 20 |
| COC(=O)c1cccc(-c2cccc(OCC(O)CN3CCc4ccccc4C3)c2)c1 (configuration not stated) | > 20000 | 101 to 1000 | > 20 |
| CS(=O)(=O)c1ccccc1OCC(=O)NCC(O)CN1CCc2ccccc2C1 (configuration not stated) | < 100 | < 100 | 1 to 10 |
| NC(=O)c1ccccc1OCC(=O)NCC(O)CN1CCc2ccccc2C1 (configuration not stated) | 101 to 1000 | 101 to 1000 | > 20 |
